Assay results taken from paper PMC8296573, “Synthesis and Biological Evaluation of Fingolimod Derivatives as Antibacterial Agents” (ACS Omega, 2021).
≈ marks a conversion by molar mass, not a printed value. Read-outs that look alike come from different tables or passages of the source.

Tests used:
S. aureus ATCC 25923 [1] = assay: Antibacterial activity, pre-exposure (planktonic cells and biofilm formation); format: cell-based, Staphylococcus aureus; conditions: for MIC / inhibition at 5 µM / inhibition at 10 µM / inhibition at 15 µM / inhibition at 25 µM: Staphylococcus aureus, ATCC25923; for inhibition at 5 µM / inhibition at 10 µM / inhibition at 15 µM / inhibition at 25 µM / Average inhibition %, biofilms viability / Average inhibition %, planktonic cells viability: pre-exposure, ± SD
Procedure, shortened: (§1)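 Compounds are diluted in DMSO and plated, then bacteria are added to test prevention of growth and biofilm formation. After 18 h at 37 °C with shaking, planktonic OD and resazurin fluorescence are measured. Washed biofilms receive resazurin (30 min S. aureus, 60 min A. baumannii, 90 min P. aeruginosa, 37 °C), then crystal violet.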

P. aeruginosa ATCC 9027 = assay: Antibacterial activity, pre-exposure; format: cell-based, Pseudomonas aeruginosa; conditions: for Average inhibition %, biofilms viability / Average inhibition %, planktonic cells viability / inhibition at 50 µM / inhibition at 100 µM / inhibition at 150 µM / inhibition at 200 µM: P. aeruginosa ATCC 9027, pre-exposure, ± SD; for inhibition at 50 µM / inhibition at 100 µM / inhibition at 150 µM / inhibition at 200 µM: Pseudomonas aeruginosa, ATCC9027
Procedure, shortened: as §1

A. baumannii NCTC 13423 = assay: Antibacterial activity, pre-exposure; format: cell-based, Acinetobacter baumannii; conditions: for Average inhibition %, biofilms viability / Average inhibition %, planktonic cells viability / inhibition at 10 µM / inhibition at 15 µM / inhibition at 25 µM / inhibition at 50 µM: A. baumannii NCTC 13423, pre-exposure, ± SD; for inhibition at 10 µM / inhibition at 15 µM / inhibition at 25 µM / inhibition at 50 µM: Acinetobacter baumannii, NCTC13423
Procedure, shortened: as §1

S. aureus ATCC 25923 [2] = assay: Antibacterial activity, post-exposure on preformed 18-h-old biofilms; format: cell-based, Staphylococcus aureus; conditions: ± SD; for inhibition at 25 µM / inhibition at 50 µM / inhibition at 100 µM / inhibition at 200 µM: Staphylococcus aureus; for inhibition at 25 µM: ATCC25923, 25 µM; for inhibition at 50 µM: ATCC25923, 50 µM; for inhibition at 100 µM: ATCC25923, 100 µM; for inhibition at 200 µM: ATCC25923, 200 µM
Procedure, shortened: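 Compounds were applied to preformed 18-h biofilms after medium change and left 24 h. Read-outs: planktonic OD plus resazurin fluorescence (20 μM), biofilm metabolic activity by resazurin 30 min at 37 °C, then biomass by crystal violet absorbance at 595 nm after ethanol fixation.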

[3] = 10 µM, read-out: Average inhibition %, biofilms biomass
[4] = 10 µM, read-out: Average inhibition %, planktonic cells turbidity
[5] = 15 µM, read-out: Average inhibition %, biofilms biomass
[6] = 15 µM, read-out: Average inhibition %, planktonic cells turbidity
[7] = 25 µM, read-out: Average inhibition %, biofilms biomass
[8] = 25 µM, read-out: Average inhibition %, planktonic cells turbidity
[9] = 50 µM, read-out: Average inhibition %, biofilms biomass
[10] = 50 µM, read-out: Average inhibition %, planktonic cells turbidity
[11] = read-out: Average inhibition %, biofilms biomass
[12] = read-out: Average inhibition %, planktonic cells turbidity

In the case of `CCCCCc1ccc(-c2ccc(CCC(N)(CO)CO)cc2)cc1` [Compound 15, 2-Amino-2-[2-(4′-pentyl-[1,1′-biphenyl]-4-yl)ethyl]propane-1,3-diol], the “Initial screening result (active = at least 60% inhibition of planktonic cells and biofilm formation)” value (S. aureus ATCC 25923 [1]; 50 μM, S. aureus) is reported as “active”, the MIC (S. aureus ATCC 25923 [1]; lowest concentration with no visible growth (>90% inhibition of turbidity and viability of planktonic cells), 18 h, read-out: MIC S. aureus ATCC 25923) is reported as 25 to 100 µM (≈ 8.54 to 34.1 µg/mL) and the inhibition at 5 µM (S. aureus ATCC 25923 [1]; 5 µM, read-out: Average inhibition %, biofilms biomass) is reported as 44.4 ± 15%. The inhibition at 5 µM (S. aureus ATCC 25923 [1]; 5 µM, read-out: Average inhibition %, planktonic cells turbidity) was 44.9 ± 12.3%, the inhibition at 10 µM (S. aureus ATCC 25923 [1]; [3]) was 68.5 ± 20.6% and the inhibition at 10 µM (S. aureus ATCC 25923 [1]; [4]) was 70.3 ± 19.8%. For the same compound, the inhibition at 15 µM (S. aureus ATCC 25923 [1]; [5]) was 75.8 ± 18.7%, the inhibition at 15 µM (S. aureus ATCC 25923 [1]; [6]) was 72.5 ± 23.2% and the inhibition at 25 µM (S. aureus ATCC 25923 [1]; [7]) was 70.7 ± 26.8%. For the same compound, the inhibition at 25 µM (S. aureus ATCC 25923 [1]; [8]) was 76.5 ± 19.4%, the MIC (S. aureus ATCC 25923 [1]; read-out: MIC (S. aureus)) was 25 to 100 µM (≈ 8.54 to 34.1 µg/mL) and the “Average inhibition %, biofilms viability” value (S. aureus ATCC 25923 [1]; 5 µM) was 42.5 ± 7.6%. The “Average inhibition %, planktonic cells viability” value (S. aureus ATCC 25923 [1]; 5 µM) was 2.6 ± 4.5%, the “Average inhibition %, biofilms viability” value (S. aureus ATCC 25923 [1]; 10 µM) was 71.3 ± 19.4% and the “Average inhibition %, planktonic cells viability” value (S. aureus ATCC 25923 [1]; 10 µM) was 50.9 ± 46%. The “Average inhibition %, biofilms viability” value (S. aureus ATCC 25923 [1]; 15 µM) was 70.4 ± 24.5%, the “Average inhibition %, planktonic cells viability” value (S. aureus ATCC 25923 [1]; 15 µM) was 33.2 ± 57.6% and the “Average inhibition %, biofilms viability” value (S. aureus ATCC 25923 [1]; 25 µM) was 79.3 ± 18.7%. For the same compound, the “Average inhibition %, planktonic cells viability” value (S. aureus ATCC 25923 [1]; 25 µM) was 33.1 ± 57.3%, the “Average inhibition %, biofilms viability” value (P. aeruginosa ATCC 9027; 50 µM) was 0 ± 0% and the “Average inhibition %, planktonic cells viability” value (P. aeruginosa ATCC 9027; 50 µM) was 22.3 ± 2%. For the same compound, the “Average inhibition %, biofilms viability” value (P. aeruginosa ATCC 9027; 100 µM) was 0 ± 0%, the “Average inhibition %, planktonic cells viability” value (P. aeruginosa ATCC 9027; 100 µM) was 12 ± 14% and the “Average inhibition %, biofilms viability” value (P. aeruginosa ATCC 9027; 150 µM) was 0.5 ± 0.8%. The “Average inhibition %, planktonic cells viability” value (P. aeruginosa ATCC 9027; 150 µM) was 5.5 ± 6.3%, the “Average inhibition %, biofilms viability” value (P. aeruginosa ATCC 9027; 200 µM) was 0 ± 0% and the “Average inhibition %, planktonic cells viability” value (P. aeruginosa ATCC 9027; 200 µM) was 7.2 ± 6.3%. For the same compound, the inhibition at 50 µM (P. aeruginosa ATCC 9027; [9]) was 2.2 ± 2.2%, the inhibition at 50 µM (P. aeruginosa ATCC 9027; [10]) was 12.6 ± 9.1% and the inhibition at 100 µM (P. aeruginosa ATCC 9027; 100 µM, read-out: Average inhibition %, biofilms biomass) was 3.7 ± 3%. The inhibition at 100 µM (P. aeruginosa ATCC 9027; 100 µM, read-out: Average inhibition %, planktonic cells turbidity) was 11.3 ± 12.7%, the inhibition at 150 µM (P. aeruginosa ATCC 9027; 150 µM, read-out: Average inhibition %, biofilms biomass) was 4.4 ± 1.9% and the inhibition at 150 µM (P. aeruginosa ATCC 9027; 150 µM, read-out: Average inhibition %, planktonic cells turbidity) was 15.7 ± 13.7%. For the same compound, the inhibition at 200 µM (P. aeruginosa ATCC 9027; 200 µM, read-out: Average inhibition %, biofilms biomass) was 12 ± 10.7%, the inhibition at 200 µM (P. aeruginosa ATCC 9027; 200 µM, read-out: Average inhibition %, planktonic cells turbidity) was 13.7 ± 14.3% and the “MIC P. aeruginosa ATCC 9027” value (P. aeruginosa ATCC 9027; pre-exposure, Inactive = no activity up to 200 μM, > = some inhibition but no MIC reached) was “Inactive”. The “Average inhibition %, biofilms viability” value (A. baumannii NCTC 13423; 10 µM) was 0 ± 0%, the “Average inhibition %, planktonic cells viability” value (A. baumannii NCTC 13423; 10 µM) was 11 ± 1.5% and the “Average inhibition %, biofilms viability” value (A. baumannii NCTC 13423; 15 µM) was 1 ± 1.5%. The “Average inhibition %, planktonic cells viability” value (A. baumannii NCTC 13423; 15 µM) was 8.7 ± 2.5%, the “Average inhibition %, biofilms viability” value (A. baumannii NCTC 13423; 25 µM) was 2.8 ± 2.6% and the “Average inhibition %, planktonic cells viability” value (A. baumannii NCTC 13423; 25 µM) was 7.8 ± 6.9%. For the same compound, the “Average inhibition %, biofilms viability” value (A. baumannii NCTC 13423; 50 µM) was 7.1 ± 0.8%, the “Average inhibition %, planktonic cells viability” value (A. baumannii NCTC 13423; 50 µM) was 0 ± 0% and the inhibition at 10 µM (A. baumannii NCTC 13423; [3]) was 0%. For the same compound, the inhibition at 10 µM (A. baumannii NCTC 13423; [4]) was 0%, the inhibition at 15 µM (A. baumannii NCTC 13423; [5]) was 0.8 ± 1.4% and the inhibition at 15 µM (A. baumannii NCTC 13423; [6]) was 0%. It also gave an inhibition at 25 µM (A. baumannii NCTC 13423; [7]) of 0%, an inhibition at 25 µM (A. baumannii NCTC 13423; [8]) of 0% and an inhibition at 50 µM (A. baumannii NCTC 13423; [9]) of 4.8 ± 4.9%. The inhibition at 50 µM (A. baumannii NCTC 13423; [10]) was 0%, the “MIC A. baumannii NCTC 13423” value (A. baumannii NCTC 13423; pre-exposure, Inactive = no activity up to 50 μM, > = some inhibition but no MIC reached) was “Inactive” and the “Average inhibition %, biofilms viability” value (S. aureus ATCC 25923 [2]; 25 µM) was 19 ± 6.6%. The “Average inhibition %, planktonic cells viability” value (S. aureus ATCC 25923 [2]; 25 µM) was 3.6 ± 6.3%, the “Average inhibition %, biofilms viability” value (S. aureus ATCC 25923 [2]; 50 µM) was 30.8 ± 8.5% and the “Average inhibition %, planktonic cells viability” value (S. aureus ATCC 25923 [2]; 50 µM) was 1.2 ± 2.1%. For the same compound, the “Average inhibition %, biofilms viability” value (S. aureus ATCC 25923 [2]; 100 µM) was 31.9 ± 6.2%, the “Average inhibition %, planktonic cells viability” value (S. aureus ATCC 25923 [2]; 100 µM) was 3.8 ± 6.6% and the “Average inhibition %, biofilms viability” value (S. aureus ATCC 25923 [2]; 200 µM) was 38.7 ± 13.3%. The “Average inhibition %, planktonic cells viability” value (S. aureus ATCC 25923 [2]; 200 µM) was 29.1 ± 25.2%, the inhibition at 25 µM (S. aureus ATCC 25923 [2]; [11]) was 34.9 ± 12.7% and the inhibition at 25 µM (S. aureus ATCC 25923 [2]; [12]) was 16.8 ± 10%. For the same compound, the inhibition at 50 µM (S. aureus ATCC 25923 [2]; [11]) was 44.9 ± 6.2%, the inhibition at 50 µM (S. aureus ATCC 25923 [2]; [12]) was 14.7 ± 13.4% and the inhibition at 100 µM (S. aureus ATCC 25923 [2]; [11]) was 43.6 ± 7.8%. It also gave an inhibition at 100 µM (S. aureus ATCC 25923 [2]; [12]) of 17.9 ± 1.1%, an inhibition at 200 µM (S. aureus ATCC 25923 [2]; [11]) of 45.5 ± 18.5% and an inhibition at 200 µM (S. aureus ATCC 25923 [2]; [12]) of 47.4 ± 13.9%.
